Values after ≈ are worked out from the molar mass of the structure shown.
Assays:
blood pressure = experiment: Blood pressure of genetically hypertensive rats, P.O. 50 mg/kg; format: in vivo; settings: 50 mg./kg. orally, tested as hydrochloride salts, + increase, - decrease in b.p.; for change in vivo at 50 mg/kg: Rattus norvegicus, po
Experimental: The blood pressure of unanesthetized rats and dogs was measured directly by means of a transducer attached to an intra-arterial cannula and in anesthetized dogs by a mercury manometer attached to a carotid cannula.
The compounds of the instant invention were tested as the hydrochloride salts by the above method in genetically hypertensive rats in doses of 50 mg./kg. orally.

[1] = system: collagen induced platelet aggregation; experiment: In vitro inhibition of collagen induced platelet aggregation (aggregometer method of Born, modified); format: cell-based; settings: Oryctolagus cuniculus; rabbit platelet rich plasma, 0.05 ml. collagen suspension
Experimental: (§1) The aggregometer method of Born (1), as modified by Mustard et al. (2) was used to assess the in vitro activity of the various compounds as to inhibition of adenosine diphosphate (ADP) and collagen induced platelet aggregation. Platelet rich plasma was separated by centrifugation from citrated (3.8 percent) rabbit blood. ADP in final concentration of 0.5 mcg./ml. or 0.05 ml. of a collagen suspension prepared according to the method described by Evans et al. (3) was used to induce aggregation. The various compounds tested were dissolved in dimethylsulfoxide (DMSO) so that 5 mcl. added to the platelet rich plasma would yield the desired test concentration. Vehicle control trials were done and compared with aggregation induced in platelet rich plasma containing various concentrations of the test compounds. Dose response curves were obtained and Effective Concentration (EC50) values calculated.
(§2) 2. mustard, J. F., Hegardt, B. Rowsell, H. C. and MacMillan, R. L., J. Lab. Clin. Med. 64, 548 (1964).
3. Evans, G. Marian M. C., Packham, M. A., Nishizawa, E. E., Mustard, J. F. and Murphy, E. A., J. Exp. Med., 128, 877 (1968).

[2] = system: adenosine diphosphate (ADP) induced platelet aggregation; experiment: In vitro inhibition of ADP induced platelet aggregation (aggregometer method of Born, modified); format: cell-based; settings: Oryctolagus cuniculus; rabbit platelet rich plasma, ADP 0.5 mcg./ml.
Experimental: as §1, §2

[3] = system: ADP induced platelet aggregation; experiment: In vivo/in vitro ADP induced platelet aggregation after I.P. dosing of rabbits; design: species or system rabbit; settings: Oryctolagus cuniculus, ip, 1 to 2 hours after dosing, dose for 50% inhibition of aggregation
Experimental: (§3) *In vivo/In vitro testing:
(§4) Before dosing the animals, blood samples are taken. The blood is centrifuged to obtain the blood platelet-rich plasma. Aggregation of this plasma is induced with ADP or collagen. This is the control.
(§5) The animals are then dosed with the compounds to be tested (orally or parenterally). Depending upon the route of administration, 1 to 2 hours are allowed to elapse after dosing. Blood is drawn and the same procedure employed as for the control in untreated animals.
The dose required to produce 50% inhibition of the aggregation is determined by dose response data obtained in this manner.

[4] = system: ADP induced platelet aggregation; experiment: In vivo/in vitro ADP induced platelet aggregation after P.O. dosing of dogs; design: species or system dog; settings: 1 to 2 hours after dosing
Experimental: as §3, §4, §5

| Compound | change in vivo at 50 mg/kg (blood pressure) | EC50 [1] | EC50 [2] | ED50 [3] | In Vivo/In Vitro Dogs P.O. 5 mg./kg. ADP % Inhibition [4] | Blood Pressure % Change Rats P.O. 50 mg./kg. (blood pressure) |
| --- | --- | --- | --- | --- | --- | --- |
| Nc1ccc2c(c1)CN1CC(=O)NC1=N2 [Compound 9, 7-Amino-1,2,3,5-tetrahydroimidazo-[2,1-b]quinazolin-2-one] | -10 ± 14% | 6 µg/mL (≈ 29.7 µM) | 50 µg/mL (≈ 247 µM) | – | – | – |
| Cc1cccc2c1N=C1NC(=O)CN1C2 [Compound 12] | -22 ± 10% | 3 µg/mL (≈ 14.9 µM) | 4 µg/mL (≈ 19.9 µM) | > 10 mg/kg | – | – |
| COc1cccc2c1CN1CCC(=O)NC1=N2 [Compound 25] | -5 ± 3% | 0.4 µg/mL (≈ 1.73 µM) | 2 µg/mL (≈ 8.65 µM) | 8 mg/kg | – | – |
| COc1ccc2c(c1)CN1CC(=O)NC1=N2 [Compound 14, 7-methoxy-1,2,3,5-tetrahydroimidazo[2,1-b]quinazolin-2-one] | -19 ± 4% | 0.2 µg/mL (≈ 0.921 µM) | 1 µg/mL (≈ 4.6 µM) | 4 mg/kg | 17% | – |
| Cc1ccc2c(c1)CN1CCC(=O)NC1=N2 [Compound 23] | -7 ± 2% | 2 µg/mL (≈ 9.29 µM) | 16 µg/mL (≈ 74.3 µM) | – | – | – |
| CC1c2ccccc2N=C2NC(=O)CN21 (stereo not drawn) [Compound 29] | -28% | 7 µg/mL (≈ 34.8 µM) | 2 µg/mL (≈ 9.94 µM) | 35 mg/kg | – | – |
| O=C1CN2Cc3ccc(Cl)cc3N=C2N1 [Compound 4] | -14% | 1.5 µg/mL (≈ 6.77 µM) | 6 µg/mL (≈ 27.1 µM) | 18 mg/kg | – | – |
| O=C1CN2Cc3cccc(Cl)c3N=C2N1 [Compound 5] | -10 ± 1% | 0.3 µg/mL (≈ 1.35 µM) | 7 µg/mL (≈ 31.6 µM) | 6 mg/kg | – | – |
| COc1cc2c(cc1OC)N=C1NC(=O)CN1C2 [Compound 17] | 26% | – | 5 µg/mL (≈ 20.2 µM) | 4 mg/kg | 0% | – |
| COc1cccc2c1CN1CC(=O)NC1=N2 [Compound 13, 6-methoxy-1,2,3,5-tetrahydroimidazo-[2,1-b]quinazolin-2-one] | -20 ± 14% | 0.2 µg/mL (≈ 0.921 µM) | 0.5 µg/mL (≈ 2.3 µM) | 4 mg/kg | 19% | – |
| Cc1cccc2c1C(C)N1CC(=O)NC1=N2 (stereo not drawn) [Compound 50, 5,6-dimethyl-1,2,3,5-tetrahydroimidazo[2,1-b]quinazolin-2-one] | -49% | – | – | – | – | – |
| O=C1CN2Cc3c(ccc4ccccc34)N=C2N1 [Compound 39] | -59% | – | – | – | – | – |
| O=C1CN2Cc3ccccc3N=C2N1 [Compound 1, 1,2,3,5-tetrahydroimidazo [2,1-b]-quinazolin-2-one] | -36 ± 6% | 2 µg/mL (≈ 10.7 µM) | 6 µg/mL (≈ 32.1 µM) | > 72 mg/kg | – | – |
| COc1ccc2c(c1OC)CN1CC(=O)NC1=N2 [Compound 16, 6,7-dimethoxy-1,2,3,5-tetrahydroimidazo[2,1-b]quinazolin-2-one] | – | – | 0.4 µg/mL (≈ 1.62 µM) | 0.7 mg/kg | – | – |
| Cc1cccc2c1CN1CC(=O)NC1=N2 [Compound 10, 6-methyl-1,2,3,5-tetrahydroimidazo-[2,1-b]quinazolin-2-one] | -37 ± 8% | 0.1 µg/mL (≈ 0.497 µM) | 0.5 µg/mL (≈ 2.48 µM) | 0.6 mg/kg | 76% | – |
| O=C1CCN2Cc3cc(Br)ccc3N=C2N1 [Compound 21, 8-Bromo-6-[H]-1,2,3,4-tetrahydropyrimido[2,1-b]quinazolin-2-one] | – | 1.5 µg/mL (≈ 5.35 µM) | 3 µg/mL (≈ 10.7 µM) | 9 mg/kg | – | Toxic |
| O=C1CN2Cc3ccc(F)cc3N=C2N1 [Compound 7] | -27 ± 3% | 2 µg/mL (≈ 9.75 µM) | 6 µg/mL (≈ 29.2 µM) | > 10 mg/kg | – | – |

| Compound | change in vivo at 50 mg/kg (blood pressure) | EC50 [1] | EC50 [2] | ED50 [3] | In Vivo/In Vitro Dogs P.O. 5 mg./kg. ADP % Inhibition [4] | Blood Pressure % Change Rats P.O. 50 mg./kg. (blood pressure) |
| --- | --- | --- | --- | --- | --- | --- |
| O=C1CN2Cc3cc(Cl)ccc3N=C2N1 [Compound 3] | -4 ± 5% | 0.2 µg/mL (≈ 0.902 µM) | 0.5 µg/mL (≈ 2.26 µM) | > 10 mg/kg | – | – |
| Cc1c(Cl)ccc2c1CN1CC(=O)NC1=N2 [Compound 45, 7-Chloro-6-methyl-1,2,3,5-tetrahydroimidazo[2,1-b]quinazolin-2-one] | – | 0.012 µg/mL (≈ 0.0509 µM) | 0.09 µg/mL (≈ 0.382 µM) | – | 46 ±8% | – |
| Cc1cccc2c1N=C1NC(=O)CCN1C2 [Compound 24] | -19% | – | – | – | – | – |
| Cc1ccc2c(c1)CN1CC(=O)NC1=N2 [Compound 11] | – | 0.3 µg/mL (≈ 1.49 µM) | 2 µg/mL (≈ 9.94 µM) | > 10 mg/kg | – | – |
| O=C1CN2Cc3cc4c(cc3N=C2N1)OCO4 [Compound 18] | -25 ± 12% | 0.07 µg/mL (≈ 0.303 µM) | 0.7 µg/mL (≈ 3.03 µM) | > 50 mg/kg | – | – |
| O=C1CCN2Cc3c(Cl)cccc3N=C2N1 [Compound 20] | -12 ± 1% | 0.7 µg/mL (≈ 2.97 µM) | 6 µg/mL (≈ 25.5 µM) | 8 mg/kg | – | – |
| Cc1ccc2c(c1)C(C)N1CC(=O)NC1=N2 (stereo not drawn) [Compound 51, 5,7-Dimethyl-1,2,3,5-tetrahydroimidazo-[2,1-b]quinazolin-2-one] | -34% | – | – | – | – | – |
| O=C1CN2Cc3cc([N+](=O)[O-])ccc3N=C2N1 [Compound 8, 7-Nitro-1,2,3,5-tetrahydroimidazo-[2,1-b]quinazolin-2-one] | 5 ± 2% | 0.2 µg/mL (≈ 0.861 µM) | 2 µg/mL (≈ 8.61 µM) | > 10 mg/kg | – | – |
| COc1cccc2c1N=C1NC(=O)CN1C2 [Compound 15] | -16 ± 3% | – | – | – | – | – |
| O=C1CN2Cc3c(Cl)cccc3N=C2N1 [Compound 2, 6-chloro-1,2,3,5-tetrahydroimidazo[2,1-b]quinazolin-2-one] | -37 ± 8% | 0.02 µg/mL (≈ 0.0902 µM) | 1 µg/mL (≈ 4.51 µM) | 2 mg/kg | – | – |
| O=C1CN2Cc3cc(Br)ccc3N=C2N1 [Compound 6, 7-Bromo-1,2,3,5-tetrahydroimidazo[2,1-b]-quinazolin-2-one] | -8 ± 3% | 0.2 µg/mL (≈ 0.752 µM) | 0.4 µg/mL (≈ 1.5 µM) | 5 mg/kg | – | – |
| O=C1CCN2Cc3ccccc3N=C2N1 [Compound 19, 6-[H]-1,2,3,4-Tetrahydropyrimido[2,1-b]-quinazolin-2-one] | -32 ± 4% | 4 µg/mL (≈ 19.9 µM) | 25 µg/mL (≈ 124 µM) | – | – | – |
| COc1cc2c(cc1OC)N=C1NC(=O)CCN1C2 [Compound 28] | 7% | 32 µg/mL (≈ 122 µM) | – | – | – | – |
| Cc1cccc2c1CN1CCC(=O)NC1=N2 [Compound 22] | -26 ± 9% | 0.3 µg/mL (≈ 1.39 µM) | 3 µg/mL (≈ 13.9 µM) | > 10 mg/kg | – | – |
| COc1ccc2c(c1)CN1CCC(=O)NC1=N2 [Compound 26] | -19 ± 6% | 1.5 µg/mL (≈ 6.49 µM) | 6 µg/mL (≈ 25.9 µM) | > 10 mg/kg | – | – |
| COc1cccc2c1N=C1NC(=O)CCN1C2 [Compound 27] | 1% | – | – | – | – | – |
